Where two headings read alike, the source gives them in different places.
Test system: recombinant NL4-3 virus (Renilla luciferase) in MT-2 cells
Test: HIV cell culture assay (antiviral activity, luciferase readout in infected MT-2 cells)
Type: cell-based
Details: Renilla
Method in brief: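 EC50 derived via median-effect equation from luciferase activity in MT-2 cells after 4–5 day infection, compound serially diluted. Virus: recombinant NL4-3 with Renilla luciferase replacing part of nef, made in 293T cells.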

[1] = NL43, read-out: Activity, antiviral activity class, recombinant NL4-3 Renilla luciferase virus in MT-2 cells
[2] = NL43, recombinant NL4-3 Renilla luciferase virus in MT-2 cells

Row | SMILES | EC50 [1] [µM] | EC50 [2] [µM]
1 | Cc1ccccc1S(=O)(=O)NC(=O)N[C@@H](Cc1ccccc1)C(=O)N(C)c1ccc(OCC(N)=O)cc1 [Example 217, (S)—N-(4-(2-amino-2-oxoethoxy)phenyl)-N-methyl-3-phenyl-2-(3-(o-tolylsulfonyl)ureido)propanamide] | 0.1 to 1 | 
2 | Cc1ccccc1S(=O)(=O)NC(=O)N[C@@H](Cc1ccccc1)C(=O)N(C)c1ccccc1 [Example CA-67, (S)—N-methyl-N, 3-diphenyl-2-(3-(o-tolylsulfonyl)ureido)propanamide] | 0.1 to 1 | 0.49
3 | CCN(C(=O)[C@H](Cc1ccccc1)NC(=O)NS(=O)(=O)c1ccccc1C)c1ccccc1 [Example CA-68, (S)—N-ethyl-N, 3-diphenyl-2-(3-(o-tolylsulfonyl)ureido)propanamide] | 0.1 to 1 | 
4 | Cc1ccccc1N(C)C(=O)[C@H](Cc1ccccc1)NC(=O)NS(=O)(=O)c1ccccc1C [Example CA-69, (S)—N-methyl-3-phenyl-N-(o-tolyl)-2-(3-(o-tolylsulfonyl)ureido)propanamide] | 1 to 10 | 
5 | Cc1ccccc1S(=O)(=O)NC(=O)N[C@@H](Cc1ccccc1)C(=O)N(c1ccccc1)C(C)C [Example CA-70, (S)—N-isopropyl-N, 3-diphenyl-2-(3-(o-tolylsulfonyl)ureido)propanamide] | 0.1 to 1 | 
6 | Cc1ccccc1S(=O)(=O)NC(=O)N[C@@H](Cc1ccccc1)C(=O)N(C)c1ccc2ncccc2c1 [Example CA-71, (S)—N-methyl-3-phenyl-N-(quinolin-6-yl)-2-(3-(o-tolylsulfonyl)ureido)propanamide] | < 0.1 | 
7 | Cc1ccc2cc(N(C)C(=O)[C@H](Cc3ccccc3)NC(=O)NS(=O)(=O)c3ccccc3C)ccc2n1 [Example CA-72, (S)—N-methyl-N-(2-methylquinolin-6-yl)-3-phenyl-2-(3-(o-tolylsulfonyl)ureido)propanamide] | < 0.1 | 0.03
8 | Cc1ccccc1S(=O)(=O)NC(=O)N[C@@H](Cc1ccccc1)C(=O)N(C)c1ccc2ncn(C)c2c1 [Example CA-73, (S)—N-methyl-N-(1-methyl-H-benzo[d]imidazol-6-yl)-3-phenyl-2-(3-(o-tolylsulfonyl)ureido)propanamide] | 0.1 to 1 | 
9 | CCn1c(C)nc2cc(N(C)C(=O)[C@H](Cc3ccccc3)NC(=O)NS(=O)(=O)c3ccccc3C)ccc21 [Example CA-74, (S)—N-(1-ethyl-2-methyl-1H-benzo[d]imidazol-5-yl)-N-methyl-3-phenyl-2-(3-(o-tolylsulfonyl)ureido)propanamide] | 1 to 10 | 2.03
10 | Cc1ccccc1S(=O)(=O)NC(=O)N[C@@H](Cc1ccccc1)C(=O)N(C)c1ccc2nccnc2c1 [Example CA-75, (S)—N-methyl-3-phenyl-N-(quinoxalin-6-yl)-2-(3-(o-tolylsulfonyl)ureido)propanamide] | 0.1 to 1 | 
11 | Cc1ccccc1S(=O)(=O)NC(=O)N[C@@H](Cc1ccccc1)C(=O)N(C)c1ccc2c(c1)CCO2 [Example CA-76, (S)—N-(2,3-dihydrobenzofuran-5-yl)-N-methyl-3-phenyl-2-(3-(o-tolylsulfonyl)ureido)propanamide] | < 0.1 | 
12 | COc1ccc(N(C)C(=O)[C@H](Cc2ccccc2)NC(=O)NS(=O)(=O)c2ccccc2C)cc1C [Example CA-77, (S)—N-(4-methoxy-3-methylphenyl)-N-methyl-3-phenyl-2-(3-(o-tolylsulfonyl)ureido)propanamide] | < 0.1 | 
13 | CCN(C(=O)[C@H](Cc1ccccc1)NC(=O)NS(=O)(=O)c1ccccc1C)c1ccc(OC)c(C)c1 [Example CA-78, (S)—N-ethyl-N-(4-methoxy-3-methylphenyl)-3-phenyl-2-(3-(o-tolylsulfonyl)ureido)propanamide] | 0.1 to 1 | 0.12
14 | Cc1ccccc1S(=O)(=O)NC(=O)N[C@@H](Cc1ccccc1)C(=O)N(C)c1ccc2c(c1)CCCO2 [Example CA-79, (S)—N-(chroman-6-yl)-N-methyl-3-phenyl-2-(3-(o-tolylsulfonyl)ureido)propanamide] | < 0.1 | 

— patent US10035760B2, “Inhibitors of human immunodeficiency virus replication” (priority 2013, dated 2018)
